Experimental data from patent US20060228730A1, “Methods for identifying small molecules that bind specific RNA structural motifs” (priority 2001, published 2006).

Tests used:
[1] = test system: Rev / IIB (or RRE) region of HIV RNA; conditions: Zapp et al., Cell, 1993; cited from earlier work
[2] = test system: HIV TAR RNA element oligonucleotide; test: Gel mobility shift, specificity control with unrelated oligonucleotide; type: binding; conditions: incubated with 10 μg/ml gentamicin, FIG. 3
Description: (§1) FIG. 3. The presence of 10 pg/ml gentamicin produces a gel mobility shift in the presence of the 16S rRNA oligonucleotide. 20 μl reactions containing increasing concentrations of gentamicin (100 ng/ml, 10 ng/ml, 1 ng/ml, 100 pg/ml, and 10 pg/ml) were added to 50 pmole RNA oligonucleotide in TKM buffer were treated as described for FIG. 2.
RNA oligonucleotides were purchased from Dharmacon, Inc, Lafayette, Colo.). 500 pmole of either a 5′ fluorescein labeled oligonucleotide corresponding to the 16S rRNA A site (5′-[…]-3′ (SEQ ID NO: 29); Moazed & Noller, 1987, Nature 327:389-394; Woodcock et al., 1991, EMBO J. 10:3099-3103; Yoshizawa et al., 1998, EMBO J. 17:6437-6448) or a 5′ fluorescein labeled oligonucleotide corresponding to the HIV-1 TAR element TAR RNA (5′-[…]-3′ (SEQ ID NO: 30); Huq et al., 1999, Nucleic Acids Research. 27:1084-1093; Hwang et al., 1999, Proc. Natl. Acad. Sci. USA 96:12997-13002) was 3′ labeled with 5-^32P cytidine 3′,5′-bis(phosphate) (NEN) and T4 RNA ligase (NEBiolabs) in 10% DMSO as per manufacturer's instructions. […] Then 10 μl of 30% glycerol was added to each reaction tube and the entire sample was loaded onto a TBE non-denaturing polyacrylamide gel and electrophoresed at 1200-1600 volt-hours at 4° C.; The gel was exposed to an intensifying screen and radioactivity was quantitated using a Typhoon phosporimager (Molecular Dynamics). […]

[3] = test system: oligonucleotide corresponding to the 16S rRNA A site; test: Gel retardation analysis (gel mobility shift), gentamicin-16S rRNA; type: binding
Description: FIG. 2. Gentamicin interacts with an oligonucleotide corresponding to the 16S rRNA. 20 μl reactions containing increasing concentrations of gentamicin (1 ng/ml, 10 ng/ml, 100 ng/ml, 1 μg/ml, 10 μg/ml, 50 μg/ml, 500 μg/ml) were added to 50 pmole RNA oligonucleotide in TKM buffer, heated at 90° C. for 2 min and allowed to cool slowly to 24° C. Then 10 μl of 30% glycerol was added to each sample and the samples were applied to a 13.5% non-denaturing polyacrylamide gel. The gel was electrophoresed using 1200 volt-hours at 4° C. in TBE Buffer Following electrophoresis, the gel was dried and the radioactivity was quantitated using a phosphorimager. The concentration of gentamicin added is indicated above each lane.
as §1
FIG. 4. Gentamicin binding to the 16S rRNA oligonucleotide is weak in the absence of MgCl2.
(§2) Tris-potassium chloride (TK) buffer is composed of 50 mM Tris-HC1 pH 7.4, 20 mM KCl, 0.1%Triton X-100, and 0.5 mM MgCl2. Tris-borate-EDTA (TBE) buffer is composed of 45 mM Tris-borate pH 8.0, and 1 mM EDTA. Tris-Potassium chloride-magnesium (TKM) buffer is composed of 50 mM Tris-HCl pH 7.4, 20 mM KCl, 0.1% Triton X-100 and 5 mM MgCl2.
RNA oligonucleotides were purchased from Dharmacon, Inc, Lafayette, Colo.). 500 pmole of either a 5′ fluorescein labeled oligonucleotide corresponding to the 16S rRNA A site (5′-[…]-3′ (SEQ ID NO: 29); Moazed & Noller, 1987, Nature 327:389-394; Woodcock et al., 1991, EMBO J. 10:3099-3103; Yoshizawa et al., 1998, EMBO J. 17:6437-6448) or a 5′ fluorescein labeled oligonucleotide corresponding to the HIV-1 TAR element TAR RNA (5′-[…]-3′ (SEQ ID NO: 30); Huq et al., 1999, Nucleic Acids Research. 27:1084-1093; Hwang et al., 1999, Proc. Natl. Acad. Sci. USA 96:12997-13002) was 3′ labeled with 5-^32P cytidine 3′,5′-bis(phosphate) (NEN) and T4 RNA ligase (NEBiolabs) in 10% DMSO as per manufacturer's instructions. The labeled oligonucleotides were purified using G-25 Sephadex columns (Boehringer Mannheim). For Tat-TAR gel retardation reactions the method of Huq et al. (Nucleic Acids Research, 1999, 27:1084-1093) was utilized with TK buffer containing 0.5 mM MgCl2 and a 12-mer Tat peptide (YGRKKRRQRRRP (SEQ ID NO: 31); single letter amino acid code). For 16S rRNA-gentamicin reactions, the method of Huq et al. was used with TKM buffer. In 20 μl reaction volumes 50 pmoles of ^32P cytidine-labeled oligonucleotide and either gentamicin sulfate (Sigma) or the short Tat peptide (Tat47.58) in TK or TKM buffer were heated at 90° C. for 2 minutes and allow to cool to room temperature (approximately 24° C.) over 2 hours. Then 10 μl of 30% glycerol was added to each reaction tube and the entire sample was loaded onto a TBE non-denaturing polyacrylamide gel and electrophoresed at 1200-1600 volt-hours at 4° C.; The gel was exposed to an intensifying screen and radioactivity was quantitated using a Typhoon phosporimager (Molecular Dynamics).

[4] = test system: HIV-1 TAR element TAR RNA oligonucleotide; test: Gel retardation analysis using automated capillary electrophoresis, Tat peptide-TAR RNA; type: binding; conditions: increasing concentrations of Tat peptide (0.1-1.6 μM), TK buffer, SCE9610 apparatus, FIG. 5
Description: FIG. 5. Gel retardation analysis to detect peptide-RNA interactions. In reactions containing increasing concentrations of Tat47-58 peptide (0.1 μM, 0.2 μM, 0.4 μM, 0.8 μM, 1.6 μM) 50 pmole TAR RNA oligonucleotide was added in TK buffer. The reaction mixture was then heated at 90° C. for 2 min and allowed to cool slowly to 24° C. The reactions were loaded onto a SCE9610 automated capillary electrophoresis apparatus (SpectruMedix; State College, Pennsylvania). The peaks correspond to the amount of free TAR RNA (“TAR”) or the Tat-TAR complex (“Tat-TAR”). The concentration of peptide added is indicated below each lane.
as §2, with “Tris-HCl” for “Tris-HC1”, “0.1% Triton” for “0.1%Triton”
RNA oligonucleotides were purchased from Dharmacon, Inc. Lafayette, Colo.). 500 pmole of a 5′ fluorescein labeled oligonucleotide corresponding to the HIV-1 TAR element TAR RNA (5′-[…]-3′ (SEQ ID NO: 30); Huq et al., 1999, Nucleic Acids Research. 27:1084-1093; Hwang et al., 1999, Proc. Natl. Acad. Sci. USA 96:12997-13002) was used. […]

[5] = test system: HIV-1 TAR element TAR RNA oligonucleotide; test: Gel retardation analysis (gel mobility shift), Tat peptide-TAR RNA; type: binding; conditions: Tat47-58 0.1-1.6 μM, 50 pmole TAR RNA, TK buffer, 12% non-denaturing polyacrylamide gel, FIG. 1
Description: FIG. 1. Gel retardation analysis to detect peptide-RNA interactions. In 20 μl reactions containing increasing concentrations of Tat47.58 peptide (0.1 μM, 0.2 μM, 0.4 μM, 0.8 μM, 1.6 μM) 50 pmole TAR RNA oligonucleotide was added in TK buffer. The reaction mixture was then heated at 90° C. for 2 min and allowed to cool slowly to 24° C. […] of 30% glycerol was added to each sample and applied to a 12% non-denaturing polyacrylamide gel. The gel was electrophoresed using 1200 volt-hours at 4° C. in TBE Buffer. Following electrophoresis, the gel was dried and the radioactivity was quantitated with a phosphorimager. The concentration of peptide added is indicated above each lane.
Tris-potassium chloride (TK) buffer is composed of 50 mM Tris-HC1 pH 7.4, 20 mM KCl, 0.1%Triton X-100, and 0.5 mM MgCl2. Tris-borate-EDTA (TBE) buffer is composed of 45 mM Tris-borate pH 8.0, and 1 mM EDTA. […]
RNA oligonucleotides were purchased from Dharmacon, Inc, Lafayette, Colo.). […] Then 10 μl of 30% glycerol was added to each reaction tube and the entire sample was loaded onto a TBE non-denaturing polyacrylamide gel and electrophoresed at 1200-1600 volt-hours at 4° C.; The gel was exposed to an intensifying screen and radioactivity was quantitated using a Typhoon phosporimager (Molecular Dynamics).

[6] = test system: 60-mer from ribosomal RNA; conditions: Cundliffe et al., 1990; cited from earlier work

NC[C@H]1O[C@H](O[C@H]2[C@H](O)[C@@H](O[C@H]3O[C@H](CO)[C@@H](O)[C@H](N)[C@H]3O)[C@H](N)C[C@@H]2N)[C@H](N)C[C@@H]1O [tobramycin]
blocking of the binding of Rev to its viral recognition element in the IIB (or RRE) region of HIV RNA [1]: can block the binding

NC[C@@H]1O[C@H](O[C@H]2[C@@H](O)[C@H](O[C@@H]3[C@@H](O)[C@H](N)C[C@H](N)[C@H]3O[C@H]3O[C@H](CN)[C@@H](O)[C@H](O)[C@H]3N)O[C@@H]2CO)[C@H](N)[C@@H](O)[C@@H]1O [neomycin B]
blocking of the binding of Rev to its viral recognition element in the IIB (or RRE) region of HIV RNA [1]: can block the binding

gentamicin
gel mobility shift of unrelated oligonucleotide (HIV TAR RNA element) [2]: does not result in a gel mobility shift
gentamicin concentration as low as which produces the mobility shift ([3]; TKM buffer (5 mM MgCl2), FIG. 2): 10 ng/mL
gentamicin concentration as low as which gel mobility shifts are produced ([3]; TKM buffer, concentrations ranged from 100 ng/ml to 10 pg/ml, FIG. 3): 10 pg/mL
gentamicin binding to the 16S rRNA oligonucleotide in the absence of MgCl2 ([3]; buffer does not contain MgCl2, FIG. 4 legend): weak
mobility shift when gentamicin is added after renaturation has proceeded to 75° C. ([3]; gentamicin added after the renaturation step proceeded to 75° C.): a mobility shift is not produced
gel shift when gentamicin is added at 90° C. or 85° C. ([3]; gentamicin present during the entire denaturation/renaturation cycle, data not shown): a gel shift is visualized
gentamicin concentration that must be added to produce a gel shift when MgCl2 is not present ([3]; no MgCl2 in buffer, FIG. 4): 1 mg/mL
mobility shift of RNA oligonucleotide corresponding to the 16S rRNA A site ([3]; varying concentrations of gentamicin (1 ng/ml-500 μg/ml), TKM buffer, 13.5% non-denaturing gel, FIG. 2): produces a mobility shift

NC[C@@H]1O[C@H](O[C@H]2[C@@H](O)[C@H](O[C@@H]3[C@@H](O)[C@H](N)C[C@H](N)[C@H]3O[C@H]3O[C@H](CO)[C@@H](O)C[C@H]3N)O[C@@H]2CO)[C@H](N)[C@@H](O)[C@@H]1O[C@H]1O[C@H](CO)[C@@H](O)[C@H](O)[C@@H]1O [lividomycin A]
blocking of the binding of Rev to its viral recognition element in the IIB (or RRE) region of HIV RNA [1]: can block the binding

YGRKKRRQRRRP [Tat47.58 peptide]
shift of TAR RNA peak in automated capillary electrophoresis [4]: a clear shift is visible
gel mobility shift of TAR RNA oligonucleotide in the presence of the Tat peptide [5]: a clear shift is visible

thiostreptone
binding to a 60-mer from ribosomal RNA [6]: binds tightly
